Assay results published in PMC12198407, “Preclinical and first-in-human of purinostat mesylate, a novel selective HDAC I/IIb inhibitor, in relapsed/refractory multiple myeloma and lymphoma” (Signal Transduction and Targeted Therapy, 2025).
Like-named read-outs stand apart in the source and are kept apart here.

Experiments:
[1] = target: human ether-à-go-go-related gene (hERG) channel (Homo sapiens, UniProt Q12809); experiment: hERG inhibition; type: biochemical
[2] = test system: cMYC-KRAS12V plasmacytoma; experiment: cMYC-KRAS12V primary plasmacytoma (PCT) mouse model; type: in vivo, BALB/c mice
Description: The cMYC-KRAS12V-induced plasmacytoma mouse model in BALB/c (GemPharmatech Co., Ltd., Nanjing, China) was established as previously described.[33] On day 28 or 35 post bone marrow transplantation, recipients received various treatments. The 5TMM mouse model was established as previously described.[55] The 5TGM1-luc cells were intravenously injected into 6-week-old C57BL/KawRij mice (Harlan Co. Netherlands) with 2 × 10^6 cells per mouse. After three weeks, mice were treated with vehicle or PM 10 mg/kg. Serum Ca^2+ levels were monitored weekly for three weeks after the start of administration. Kaplan-Meier survival curves were generated for each treatment group. Additionally, the 5TMM mouse model studying PM’s effects on immune response and bone destruction involved randomizing mice into vehicle and PM (10 mg/kg) groups one week after inoculation. T cell subsets were analyzed by flow cytometry 24 h after a single dose and 1 month after vehicle or PM treatment. The mice were sacrificed after 1 month of treatment, and the bone destruction was detected by Micro-CT.

clinical = type: in vivo, human
Description: To analyze the pharmacokinetics (PK) of PM, serial blood samples were collected at pre-dose and at 5 minutes, 10 minutes, 20 minutes, 30 minutes, 32 minutes, 35 minutes, 45 minutes, 1 hour, 2 hours, 4 hours, 8 hours, and 12 hours post-dose on day 1. During the multiple dosing phase, blood samples were collected at pre-dose on day 15, and 5 minutes, 10 minutes, 20 minutes, 30 minutes, 32 minutes, 35 minutes, 45 minutes, 1 hour, 2 hours, 4 hours, 8 hours, and 12 hours post-dose on day 15. PM plasma concentrations were determined using ultra performance liquid chromatography (UPLC) coupled with tandem mass spectrometry (MS-MS) detection. Pharmacokinetic parameters, including Tmax, Cmax, AUC0-t, AUC0-∞, t1/2, MRT, CL, Ke, and V, were calculated using the non-compartmental analysis (NCA) method with the professional pharmacokinetic software Phoenix WinNonlin (Version 8.1). Dose proportionality was assessed in single-dose experiments, while drug accumulation was evaluated in multiple-dose experiments.

[3] = Chronic toxicity test, 4 weeks; type: in vivo, rats
Description: In this study, the low, medium, and high dose groups were set at 3, 10, and 30 mg/kg, respectively. The blank formulation was set at low and high doses of 45 and 450 mg/kg, corresponding to the doses of hydroxypropyl beta-cyclodextrin in the low and high dose groups of injectable Purinostat Mesylate. Dosing occurred once every two days, three times a week, for a total of four weeks, with some animals undergoing a four-week recovery period after the treatment ended. The main results indicated no mortality. In the high-dose group, symptoms included sparse fur, reduced activity, and scabbing at the injection site. […] The primary toxic target organs or systems included the immune system (spleen, thymus, various lymph nodes), submandibular gland, bone marrow, testis, and epididymis.

[4] = Fertility, embryo and fetal developmental toxicity test; parameters: species or system SD rats; conditions: SD, rat, in vivo, intravenous
Description: Male SD rats were administered intravenous injections of Purinostat Mesylate at doses of 3, 10, and 20 mg/kg every two days from 4 weeks prior to mating until the end of mating. Female SD rats received the same treatment from 2 weeks prior to mating until day 7 of pregnancy. The no observed adverse effect level (NOAEL) for males was less than 3 mg/kg, while for females it was 20 mg/kg. The NOAEL for reproductive toxicity in both male and female rats was 3 mg/kg, and the NOAEL for early embryonic development was less than 3 mg/kg.

[5] = Metabolite profiling in plasma, bile, urine, feces; type: in vivo, SD rats; conditions: for share of plasma AUC0-96h: [14C] 3 mg/100 µCi/kg i.v.; for amount in bile, % of administered dose: 0 to 72 hours; for amount in feces, % of administered dose / amount in urine, % of administered dose: 0 to 168 hours
Description: Following a single intravenous administration of [14C] Purinostat Mesylate at a dose of 3 mg/100 µCi/kg in male and female rats, a total of 14 metabolites were identified, in addition to the parent compound. These were designated as M382, M396, M474, M475, M490, M516, M517, M532, M546, M548, M558, M666, M708a, and M708b. Among these, M382 is an acetylated product of the parent drug after N-dealkylation, M396 is a carboxylic acid derivative of M382, M474 is a reduction product of the parent drug, M475 is a hydroxylated product derived from the amino conversion of M474, M490 is a mono-oxidation product of M474, M516 is an acetylated product of M474, M517 is a hydroxylated product derived from the amino conversion of M516, M532 is an acetylated product of the parent drug, M546 is a methylated product of M532, M548 is a dioxidation product of M516, M558 is a glucuronic acid conjugate of M382, M666 is a glucuronic acid conjugate of the parent drug, M708a is a mono-oxidation glucuronic acid conjugate of M516, and M708b is a glucuronic acid conjugate of M532.

[6] = Pharmacokinetics, intravenous; type: in vivo, Beagle dogs; conditions: both sexes, Beagle, dog, plasma; for Vd: read-out: Vdss; for clearance: read-out: plasma clearance (CL)
Description: The elimination half-lives (T1/2) were 4.49 ± 0.669, 7.05 ± 3.07, and 8.47 ± 1.26 hours, respectively. The area under the plasma concentration-time curve from time zero to the last quantifiable time point (AUC0-last) was 75.1 ± 18.3, 238 ± 63.1, and 713 ± 122 h•ng/mL, respectively.

Sequence of human ether-à-go-go-related gene (hERG) channel (Q12809 whole entry): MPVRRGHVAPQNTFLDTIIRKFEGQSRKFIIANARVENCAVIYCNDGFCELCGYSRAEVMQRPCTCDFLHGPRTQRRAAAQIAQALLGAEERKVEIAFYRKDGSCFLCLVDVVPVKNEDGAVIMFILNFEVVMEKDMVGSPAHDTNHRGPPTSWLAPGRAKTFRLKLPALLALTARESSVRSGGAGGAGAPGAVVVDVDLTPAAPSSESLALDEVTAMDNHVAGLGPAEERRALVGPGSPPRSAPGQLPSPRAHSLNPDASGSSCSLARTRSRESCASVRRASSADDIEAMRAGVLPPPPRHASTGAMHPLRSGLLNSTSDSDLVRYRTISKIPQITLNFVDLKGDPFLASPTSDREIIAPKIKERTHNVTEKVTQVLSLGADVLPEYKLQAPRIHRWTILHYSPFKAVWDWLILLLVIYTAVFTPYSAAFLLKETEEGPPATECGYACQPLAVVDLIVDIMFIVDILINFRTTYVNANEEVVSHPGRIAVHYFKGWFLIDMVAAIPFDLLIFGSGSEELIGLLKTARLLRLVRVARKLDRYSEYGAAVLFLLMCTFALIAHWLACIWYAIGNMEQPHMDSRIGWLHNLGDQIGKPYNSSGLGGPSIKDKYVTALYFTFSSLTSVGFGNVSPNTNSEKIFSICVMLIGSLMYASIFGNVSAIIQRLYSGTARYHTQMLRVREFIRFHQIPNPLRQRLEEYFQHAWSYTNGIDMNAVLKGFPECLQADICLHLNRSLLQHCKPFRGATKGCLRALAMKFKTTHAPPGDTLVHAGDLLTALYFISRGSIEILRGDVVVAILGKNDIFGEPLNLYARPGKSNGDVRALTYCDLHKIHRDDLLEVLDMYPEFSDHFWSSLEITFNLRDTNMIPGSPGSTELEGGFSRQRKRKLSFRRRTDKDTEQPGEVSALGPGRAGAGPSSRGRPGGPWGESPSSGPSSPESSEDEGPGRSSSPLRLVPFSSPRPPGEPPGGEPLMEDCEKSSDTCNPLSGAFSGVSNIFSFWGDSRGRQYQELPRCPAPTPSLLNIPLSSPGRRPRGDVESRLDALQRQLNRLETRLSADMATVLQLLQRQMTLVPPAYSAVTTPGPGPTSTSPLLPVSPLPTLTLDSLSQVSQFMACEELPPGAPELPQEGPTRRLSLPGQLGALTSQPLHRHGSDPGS

CN(Cc1nc2c(N3CCOCC3)nc(-c3ccc(N)cc3)nc2n1C)c1ncc(C(=O)NO)cn1.CS(=O)(=O)O [PM, 2-(((2-(4-Aminophenyl)-9-methyl-6-(4-morpholinyl)-9H-purine-8-yl)methyl)methylamino)-N-hydroxy-5-pyrimidine-carboxamide Mesylate]
IC50 [1]: > 100 µM
median survival time (MST) ([2]; 5 mg/kg, vehicle 47 days): 68 days
median survival time (MST) ([2]; more severe PCT model, from day 35, PM 10 mg/kg, regimens per Table S9): 59 days
accumulation index for AUC0–∞ (multiple doses/single dose) (clinical; 1.2 to 15.0 mg/m^2): 0.97–1.17
accumulation index for Cmax (multiple doses/single dose) (clinical; 1.2 to 15.0 mg/m^2): 0.96 to 1.32
half-life (clinical; human, plasma, iv, single (Day 1) intravenous, range over doses, read-out: half-life (t1/2)): 2.3 to 3.51 h
mortality ([3]; 3, 10, 30 mg/kg): no mortality
highest no serious toxicity dose (HNSTD) ([3]; three times a week, four weeks): 30 mg/kg
NOAEL [4]: < 3 mg/kg
NOAEL ([4]; both sexes): 3 mg/kg
NOAEL ([4]; female): 20 mg/kg
NOAEL ([4]; male): < 3 mg/kg
share of plasma AUC0-96h ([5]; female rats): 11.15%
amount in bile, % of administered dose ([5]; females): 2.45%
amount in feces, % of administered dose ([5]; females): 0.84%
amount in urine, % of administered dose ([5]; females): 0.35%
share of plasma AUC0-96h ([5]; male rats): 8.79%
amount in bile, % of administered dose ([5]; males): 2.47%
amount in feces, % of administered dose ([5]; males): 0.94%
amount in urine, % of administered dose ([5]; males): 0.66%
AUC(0-t) ([6]; 0.3 mg/kg): 75.1 ± 18.3 ng·h/mL
Cmax ([6]; 0.3 mg/kg single i.v.): 130 ± 35.5 ng/mL
half-life ([6]; 0.3 mg/kg, read-out: T1/2 (converted)): 4.49 ± 0.669 h
Vd ([6]; 0.3 mg/kg): 3.69 ± 0.957 L/kg
clearance ([6]; 0.3 mg/kg): 68.4 ± 13.2 mL/min/kg
AUC(0-t) ([6]; 1 mg/kg): 238 ± 63.1 ng·h/mL
Cmax ([6]; 1 mg/kg single i.v.): 411 ± 162 ng/mL
half-life ([6]; 1 mg/kg, read-out: T1/2 (converted)): 7.05 ± 3.07 h
Vd ([6]; 1 mg/kg): 3.85 ± 1.8 L/kg
clearance ([6]; 1 mg/kg): 73.4 ± 17.9 mL/min/kg
AUC(0-t) ([6]; 3 mg/kg): 713 ± 122 ng·h/mL
Cmax ([6]; 3 mg/kg single i.v.): 1230 ± 166 ng/mL
half-life ([6]; 3 mg/kg, read-out: T1/2 (converted)): 8.47 ± 1.26 h
Vd ([6]; 3 mg/kg): 2.89 ± 0.605 L/kg
clearance ([6]; 3 mg/kg): 71.5 ± 11.6 mL/min/kg
half-life ([6]; single i.v., range over doses, read-out: half-life): 4.49 to 8.47 h
